In PMC5321434, “Dihydrobenz[e][1,4]oxazepin-2(3H)-ones, a new anthelmintic chemotype immobilising whipworm and reducing infectivity in vivo” (PLoS Neglected Tropical Diseases, 2017):
Where two headings read alike, the source gives them in different places.

Experiments:
[1] = test system: un-embryonated T. muris eggs; assay: Embryonation assay; set-up: species or system Trichuris muris; conditions: resynthesised compound, activity on T. muris embryonation (Yes/No)
Method: To assess whether the dihydrobenzoxazepinone compounds could also prevent embryonation, 100 un-embryonated eggs were treated with OX02983 and OX03153 at 100μM for 56 days in the dark at room temperature, then examined under an Olympus SD-ILK microscope for signs of embryonation.

[2] = Neutral red cytotoxicity assay; type: cell-based, mouse; conditions: mouse, CMT-93 rectal epithelial cells; resynthesised compound, neutral red cytotoxicity; read-out: ResynCytotoxicityNeutralRed(EC50uM)
Method: CMT-93 murine rectal epithelial cells were maintained in Dulbecco's Modified Eagle's Medium (DMEM) with 10% fetal calf serum (FCS) and 1% penicillin-streptomycin solution (10,000U/ml). Cells were plated in 96-well tissue culture plates at a density of 2x10^2 cells per well in a volume of 100μl, and cultured for 96 hours (37°C, 5% CO2) until reaching 30% confluence. The growth medium was removed and replaced with treatment media (DMEM, 1% FCS, 1% penicillin-streptomycin solution, 100μl assay volume) supplemented with vehicle alone (DMSO), test compounds or chlorpromazine, a positive control for cytotoxicity (final concentrations from 0 to 100μM). Maximum vehicle concentration for all compounds was 0.5% DMSO. Cells were cultured with the test compounds for 72 hours before cytotoxicity measurement. Following the WST-8 assay, the medium was removed, cells were washed with 100μl PBS and then 100μl of neutral red medium (DMEM, 1% FBS and 33μg/ml neutral red dye (Sigma Aldrich #N2889) were added to each well, followed by incubation for a further 2 hours. The neutral red medium was removed, cells washed with 100μl of PBS and 100μl of destain solution (50% ethanol, 49% distilled water and 1% glacial acetic acid) were added. Each assay plate was shaken rapidly for 10 minutes before absorbance was measured at 540nm using a microplate reader. This assay measures the ability of living cells to actively take up the neutral red dye. Results were analysed using GraphPad Prism and fitted using a log-logistic model.

[3] = test system: adult T. muris; assay: Ex vivo adult T. muris automated motility assay (primary/secondary screen at 100 μM and dose-response); set-up: species or system Trichuris muris; conditions: for EC50: Trichuris muris, resynthesised compound, adult T. muris paralysis, read-out: ResynActivityTmurisAdultParalysis(EC50uM); for COMBINED_SCREEN_ACTIVITY: combined primary and secondary screen minus log fold change in movement, adult T. muris; for PRIMARY_SCREEN_MINUS_LOG_FOLD_CHANGE_MOVEMENT: primary screen
Procedure, shortened: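 Adult worms recovered from SCID mice at day 35 post-infection (200 eggs orally), one per well, in RPMI-1640 with penicillin/streptomycin and 1% DMSO. Compound at 100 μM final in primary screen, 24 h at 37 °C, 5% CO2; motility from pixel-variance imaging, dose-response by four-parameter log-logistic fit.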

[4] = WST-8 cytotoxicity assay; type: cell-based, mouse; conditions: mouse, CMT-93 rectal epithelial cells; resynthesised compound, WST-8 cytotoxicity; read-out: ResynCytotoxityWST-8(EC50uM)
Method: CMT-93 murine rectal epithelial cells were maintained in Dulbecco's Modified Eagle's Medium (DMEM) with 10% fetal calf serum (FCS) and 1% penicillin-streptomycin solution (10,000U/ml). Cells were plated in 96-well tissue culture plates at a density of 2x10^2 cells per well in a volume of 100μl, and cultured for 96 hours (37°C, 5% CO2) until reaching 30% confluence. The growth medium was removed and replaced with treatment media (DMEM, 1% FCS, 1% penicillin-streptomycin solution, 100μl assay volume) supplemented with vehicle alone (DMSO), test compounds or chlorpromazine, a positive control for cytotoxicity (final concentrations from 0 to 100μM). Maximum vehicle concentration for all compounds was 0.5% DMSO. Cells were cultured with the test compounds for 72 hours before cytotoxicity measurement. The WST-8 assay was performed using the Cell Counting Kit– 8 (Sigma Aldrich # 96992). 10μl of the CCK-8 solution was added to each well, plates were incubated for a further 2 hours, before absorbance was measured at 450nm using a microplate reader. This assay measures the ability of metabolically active cells to reduce a water-soluble formazan dye. Results were analysed using GraphPad Prism and fitted using a log-logistic model.

[5] = test system: embryonated T. muris eggs; assay: In vivo establishment of infection by compound-treated embryonated eggs; set-up: species or system Trichuris muris; conditions: resynthesised compound, activity on T. muris egg infectivity (Yes/No)
Method: 100 infective embryonated eggs were incubated with water, water plus DMSO vehicle, or test compounds at a final concentration of 100μM for 14 days at room temperature. Eggs were then washed, re-suspended in water and 30 eggs given to a mouse via oral gavage. At day 15 post-infection, mice were culled and the number of worms present in the caecae and colon was counted. One data point was excluded: a water control individual mouse where there were technical difficulties with the oral gavage leading to the mouse regurgitating some of the T. muris eggs. It was ear marked at day of gavage and removed from the analysis.
We collected data using the same experimental design on different occasions, these are referred to as batches. Data were obtained from three batches (DMSO and water controls, batches [A,B,C]) or two batches (OX02983 [A,C], OX03153 [B,C]) with the total number of mice used, n, as follows: DMSO: 14, water: 16, OX02983: 10, OX03153: 12. The data were analysed by 2-way ANOVA (worms ~ treatment + batch + treatment * batch). There was no significant interaction effect (P = 0.14) or effect of batch (P = 0.47). We therefore combined the data from the three batches. […] We then conducted a post-hoc test using Tukey’s honest significant difference test.

[6] = test system: T. muris; conditions: associated with damage to nematode cuticle; cited from earlier work
[7] = test system: T. muris L4 larvae; set-up: method as in PMID 21889548; conditions: maximum concentration tested 200μg/ml or 229μM; cited from earlier work
[8] = test system: T. muris L1 larvae; set-up: method as in PMID 23433224; conditions: cited from earlier work
[9] = test system: L3/L4 and adult T. muris; set-up: method as in PMID 25261877; conditions: 200μg/ml (678μM); cited from earlier work
[10] = test system: T. trichiura; conditions: single doses of benzimidazoles; cited from earlier work
[11] = test system: Ascaris; set-up: method as in PMID 18430913; conditions: annual treatment; cited from earlier work
[12] = adult T. muris motility, 100 μM

Cc1ccc(CN2C(=O)COCc3cc(-c4ccncc4)ccc32)cc1 [Compound 1]
ResynActivityTmurisEmbryonation [1]: No | EC50 at 72 h [2]: > 100 µM | EC50 [3]: 50 µM | COMBINED_SCREEN_ACTIVITY ([3]; 100 μM): 8.615 | PRIMARY_SCREEN_MINUS_LOG_FOLD_CHANGE_MOVEMENT [3, 12]: 10.6993 | SECONDARY_SCREEN_MINUS_LOG_FOLD_CHANGE_MOVEMENT ([3]; secondary screen, adult T. muris motility, 100 μM): 6.531 | EC50 at 72 h [4]: > 100 µM | ResynActivityTmurisEggInfectivity [5]: Yes

ficin
Effect on motility of T. muris parasites in vitro [6]: rapidly reduce motility

Ivermectin
Activity against T. muris L4 larvae [7]: not active | Activity against T. muris L1 larvae ([8]; maximum concentration tested 50μg/ml or 57μM): not active

COC(=O)Nc1nc2ccc(C(=O)c3ccccc3)cc2[nH]1 [Mebendazole]
Activity against L3/L4 and adult T. muris [9]: active | Activity against T. muris L1 larvae ([8]; maximum concentration tested 50μg/ml or 169μM): not active | Cure rate for infection with T. trichiura [10]: 36% | Cure rate, Ascaris [11]: up to 95%

Cc1ccc(CN2C(=O)COCc3cc(-c4cccnc4)ccc32)cc1 [Compound 5]
ResynActivityTmurisEmbryonation [1]: No | EC50 at 72 h [2]: > 100 µM | EC50 [3]: 57 µM | COMBINED_SCREEN_ACTIVITY ([3]; 100 μM): 10.5493 | PRIMARY_SCREEN_MINUS_LOG_FOLD_CHANGE_MOVEMENT [3, 12]: 10.5493 | EC50 at 72 h [4]: > 100 µM | ResynActivityTmurisEggInfectivity [5]: No

CCCSc1ccc2nc(NC(=O)OC)[nH]c2c1 [albendazole]
Cure rate for infection with T. trichiura [10]: 28% | Cure rate, Ascaris [11]: up to 95%

B1: papain (protein, UniProt P00784 134-345, looked up)
Papain: IPEYVDWRQKGAVTPVKNQGSCGSCWAFSAVVTIEGIIKIRTGNLNEYSEQELLDCDRRSYGCNGGYPWSALQLVAQYGIHYRNTYPYEGVQRYCRSREKGPYAAKTDGVRQVQPYNEGALLYSIANQPVSVVLEAAGKDFQLYRGGIFVGPCGNKVDHAVAAVGYGPNYILIKNSWGTGWGENGYIRIKRGTGNSYGVCGLYTSSFYPVKN
notes: purified protease
Effect on motility of T. muris parasites in vitro [6]: rapidly reduce motility
